Experimental data taken from US12366572B2, “Activation of bioluminescence by structural complementation” (Promega Corporation, priority 2013, dated 2025).

target: NLpoly 11S (Oplophorus gracilirostris, UniProt Q9GV45, A31E/A60N/A81I/D135N/F58L/F95D/G184S/G42A/G62A/G78A/G94A/G98A/H120P/I103V/I117V/I134L/K70R/L176M/L26M/L54V/L73R/L99Q/M102E/N171T/P142E/Q151K/Q38E/Q45L/T27V/V71I/Y165I); assay: biochemical; format: binding
Sequence (Q9GV45 26-184 with the stated changes limits assumed): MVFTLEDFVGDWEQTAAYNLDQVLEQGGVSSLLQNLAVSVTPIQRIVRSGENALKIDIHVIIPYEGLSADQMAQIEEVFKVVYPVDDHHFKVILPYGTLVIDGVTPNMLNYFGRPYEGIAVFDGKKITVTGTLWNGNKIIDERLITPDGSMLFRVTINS

Molecule | Kd
Ac-VEGYRLFQKIS-NH2 [array2.64, VEGYRLFQKIS] | 0.586 µM
Ac-VEGYRLFEKIS-NH2 [array2.73, VEGYRLFEKIS] | 2.15 µM
Ac-VEGYRLFKEES-NH2 [array2.63, VEGYRLFKEES] | 220 µM
Ac-VTGYRLFEQEL-NH2 [array2.51, VTGYRLFEQEL] | 85 µM
Ac-VEGYRLFKEIS-NH2 [array2.61, VEGYRLFKEIS] | 14.4 µM
Ac-VEGYRLFQQAS-NH2 [array2.68, VEGYRLFQQAS] | 20 µM
Ac-VEGYRLFKKAS-NH2 [array2.56, VEGYRLFKKAS] | 0.641 µM
Ac-VTGYRLFEEIL-NH2 [array2.52, VTGYRLFEEIL] | 104 µM
Ac-VTGYRLFQQEL-NH2 [array2.42, VTGYRLFQQEL] | 19 µM
Ac-VEGYRLFQQAL-NH2 [array2.95, VEGYRLFQQAL] | 18.8 µM
Ac-VTGYRLFQKAS-NH2 [array2.11, VTGYRLFQKAS] | 0.748 µM
Ac-VEGYRLFKEAL-NH2 [array2.89, VEGYRLFKEAL] | 42.4 µM
Ac-VEGYRLFEKEL-NH2 [array2.102, VEGYRLFEKEL] | 5.79 µM
Ac-VTGYRLFKQIS-NH2 [array2.4, VTGYRLFKQIS] | 0.746 µM
Ac-VTGYRLFQQIL-NH2 [array2.40, VTGYRLFQQIL] | 122 µM
Ac-VTGYRLFQKIS-NH2 [array2.10, VTGYRLFQKIS] | 0.0812 µM
Ac-VTGYRLFKEAS-NH2 [array2.8, VTGYRLFKEAS] | 2.57 µM
Ac-VTGYRLFKKEL-NH2 [array2.30, VTGYRLFKKEL] | 0.671 µM
Ac-VEGYRLFEKAS-NH2 [array2.74, VEGYRLFEKAS] | 4.14 µM
Ac-VTGYRLFKKIL-NH2 [array2.28, VTGYRLFKKIL] | 0.0766 µM
Ac-VTGYRLFKKES-NH2 [array2.3, VTGYRLFKKES] | 0.773 µM
Ac-VTGYRLFKEIL-NH2 [array2.34, VTGYRLFKEIL] | 4.41 µM
Ac-VEGYRLFKKEL-NH2 [array2.84, VEGYRLFKKEL] | 1.41 µM

Molecule | Kd
Ac-VEGYRLFKQIS-NH2 [array2.58, VEGYRLFKQIS] | 2.09 µM
Ac-VTGYRLFKQAS-NH2 [array2.5, VTGYRLFKQAS] | 1.95 µM
Ac-VTGYRLFQEEL-NH2 [array2.45, VTGYRLFQEEL] | 35.4 µM
Ac-VEGYRLFQQEL-NH2 [array2.96, VEGYRLFQQEL] | 99.4 µM
Ac-VEGYRLFEKIL-NH2 [array2.100, VEGYRLFEKIL] | 10.6 µM
Ac-VEGYRLFKEEL-NH2 [array2.90, VEGYRLFKEEL] | 101 µM
Ac-VTGYRLFQKIL-NH2 [array2.37, VTGYRLFQKIL] | 0.362 µM
Ac-VTGYRLFKKIS-NH2 [array2.1, VTGYRLFKKIS] | 0.0133 µM
Ac-VEGYRLFEQAL-NH2 [array2.104, VEGYRLFEQAL] | 336 µM
Ac-VEGYRLFQKAL-NH2 [array2.92, VEGYRLFQKAL] | 2.02 µM
Ac-VEGYRLFKQAL-NH2 [array2.86, VEGYRLFKQAL] | 2.27 µM
Ac-VEGYRLFEQAS-NH2 [array2.77, VEGYRLFEQAS] | 48.3 µM
Ac-VTGYRLFKEIS-NH2 [array2.7, VTGYRLFKEIS] | 4.44 µM
Ac-VTGYRLFEQAL-NH2 [array2.50, VTGYRLFEQAL] | 40.4 µM
Ac-VTGYRLFEQES-NH2 [array2.24, VTGYRLFEQES] | 7.83 µM
Ac-VEGYRLFKEIL-NH2 [array2.88, VEGYRLFKEIL] | 17.8 µM
Ac-VEGYRLFQEIS-NH2 [array2.70, VEGYRLFQEIS] | 230 µM
Ac-VTGYRLFKKAL-NH2 [array2.29, VTGYRLFKKAL] | 0.275 µM
Ac-VEGYRLFQEAS-NH2 [array2.71, VEGYRLFQEAS] | 24 µM
Ac-VTGYRLFEKAL-NH2 [array2.47, VTGYRLFEKAL] | 1.81 µM
Ac-VEGYRLFEKES-NH2 [array2.75, VEGYRLFEKES] | 2.97 µM
CC[C@H](C)[C@H](NC(=O)[C@H](CCCCN)NC(=O)[C@H](CCC(=O)O)NC(=O)[C@H](Cc1ccccc1)NC(=O)[C@H](CC(C)C)NC(=O)[C@H](CCCNC(=N)N)NC(=O)[C@H](Cc1ccc(O)cc1)NC(=O)CNC(=O)[C@@H](NC(=O)[C@@H](NC(C)=O)C(C)C)[C@@H](C)O)C(=O)N[C@@H](CO)C(N)=O [array2.19, VTGYRLFEKIS] | 0.605 µM
Ac-VTGYRLFEKIL-NH2 [array2.46, VTGYRLFEKIL] | 1.92 µM

Molecule | Kd
Ac-VTGYRLFQKES-NH2 [array2.12, VTGYRLFQKES] | 0.417 µM
Ac-VEGYRLFEQES-NH2 [array2.78, VEGYRLFEQES] | 252 µM
Ac-VEGYRLFKQIL-NH2 [array2.85, VEGYRLFKQIL] | 10.3 µM
Ac-VTGYRLFKQIL-NH2 [array2.31, VTGYRLFKQIL] | 2.99 µM
Ac-VEGYRLFQKAS-NH2 [array2.65, VEGYRLFQKAS] | 1.93 µM
Ac-VEGYRLFQKES-NH2 [array2.66, VEGYRLFQKES] | 2.87 µM
Ac-VTGYRLFEKEL-NH2 [array2.48, VTGYRLFEKEL] | 2.44 µM
Ac-VTGYRLFEEEL-NH2 [array2.54, VTGYRLFEEEL] | 68.3 µM
Ac-VEGYRLFKKAL-NH2 [array2.83, VEGYRLFKKAL] | 1.59 µM
Ac-VEGYRLFEKAL-NH2 [array2.101, VEGYRLFEKAL] | 12.6 µM
Ac-VTGYRLFKQEL-NH2 [array2.33, VTGYRLFKQEL] | 1.95 µM
Ac-VTGYRLFQEAL-NH2 [array2.44, VTGYRLFQEAL] | 16 µM
Ac-VEGYRLFKKIS-NH2 [array2.55, VEGYRLFKKIS] | 0.078 µM
Ac-VTGYRLFQKAL-NH2 [array2.38, VTGYRLFQKAL] | 0.975 µM
Ac-VTGYRLFKQES-NH2 [array2.6, VTGYRLFKQES] | 1.35 µM
Ac-VEGYRLFQQIL-NH2 [array2.94, VEGYRLFQQIL] | 9.39 µM
Ac-VTGYRLFEQIS-NH2 [array2.22, VTGYRLFEQIS] | 10.8 µM
Ac-VTGYRLFKEEL-NH2 [array2.36, VTGYRLFKEEL] | 7.78 µM
Ac-VEGYRLFKEAS-NH2 [array2.62, VEGYRLFKEAS] | 22.1 µM
Ac-VTGYRLFQKEL-NH2 [array2.39, VTGYRLFQKEL] | 2.48 µM
Ac-VEGYRLFEEAS-NH2 [array2.80, VEGYRLFEEAS] | 1420 µM
Ac-VEGYRLFQQIS-NH2 [array2.67, VEGYRLFQQIS] | 8.14 µM
Ac-VEGYRLFQKEL-NH2 [array2.93, VEGYRLFQKEL] | 1.69 µM

Molecule | Kd
Ac-VTGYRLFQEIS-NH2 [array2.16, VTGYRLFQEIS] | 2.56 µM
Ac-VTGYRLFEQAS-NH2 [array2.23, VTGYRLFEQAS] | 4.17 µM
Ac-VEGYRLFKKIL-NH2 [array2.82, VEGYRLFKKIL] | 0.563 µM
Ac-VTGYRLFKEAL-NH2 [array2.35, VTGYRLFKEAL] | 5.15 µM
Ac-VTGYRLFEKAS-NH2 [array2.20, VTGYRLFEKAS] | 1.79 µM
Ac-VTGYRLFKQAL-NH2 [array2.32, VTGYRLFKQAL] | 3.56 µM
Ac-VEGYRLFQEAL-NH2 [array2.98, VEGYRLFQEAL] | 99.9 µM
Ac-VTGYRLFQQIS-NH2 [array2.13, VTGYRLFQQIS] | 0.876 µM
Ac-VTGYRLFEQIL-NH2 [array2.49, VTGYRLFEQIL] | 124 µM
Ac-VTGYRLFQEES-NH2 [array2.18, VTGYRLFQEES] | 67.3 µM
Ac-VTGYRLFQEIL-NH2 [array2.43, VTGYRLFQEIL] | 17.3 µM
Ac-VEGYRLFQKIL-NH2 [array2.91, VEGYRLFQKIL] | 2.08 µM
Ac-VTGYRLFKKAS-NH2 [array2.2, VTGYRLFKKAS] | 0.241 µM
Ac-VEGYRLFKQAS-NH2 [array2.59, VEGYRLFKQAS] | 2.09 µM
Ac-VTGYRLFKEES-NH2 [array2.9, VTGYRLFKEES] | 3.86 µM
Ac-VEGYRLFKQEL-NH2 [array2.87, VEGYRLFKQEL] | 12.6 µM
Ac-VEGYRLFKKES-NH2 [array2.57, VEGYRLFKKES] | 0.891 µM
Ac-VTGYRLFQQAS-NH2 [array2.14, VTGYRLFQQAS] | 1.11 µM
Ac-VEGYRLFEQIS-NH2 [array2.76, VEGYRLFEQIS] | 52.8 µM
Ac-VTGYRLFQQES-NH2 [array2.15, VTGYRLFQQES] | 7.49 µM
